The results in this text go back to patent publication US12486273B2 (Hoffmann-La Roche Inc., priority 2019, dated 2025).

The target in one series is human TLR7 (Homo sapiens (Human), UniProt Q9NYK1). Briefly: HEK293-Blue-hTLR-7 cells assay. Type of series: cell-based. The conditions noted are these: HEK293-Blue-hTLR7 cells, R848 stimulation, 20 hrs, SEAP reporter; read-out: HEK/hTLR7 IC50. From the text: HEK293-BLUE-hTLR-7 CELLS ASSAY:
(§1) A stable HEK293-Blue-hTLR-7 cell line was purchased from InvivoGen (Cat. #: hkb-htlr7, San Diego, California, USA). These cells were originally designed for studying the stimulation of human TLR7 by monitoring the activation of NF-κB. A SEAP (secreted embryonic alkaline phosphatase) reporter gene was placed under the control of the IFN-β minimal promoter fused to five NF-κB and AP-1-binding sites. The SEAP was induced by activating NF-κB and AP-1 via stimulating HEK-Blue hTLR7 cells with TLR7 ligands. Therefore the reporter expression was declined by TLR7 antagonist under the stimulation of a ligand, such as R848 (Resiquimod), for incubation of 20 hrs. The cell culture supernatant SEAP reporter activity was determined using QUANTI-Blue™ kit (Cat. #: rep-qb1, Invivogen, San Diego, Ca, USA) at a wavelength of 640 nm, a detection medium that turns purple or blue in the presence of alkaline phosphatase.
(§2) HEK293-Blue-hTLR7 cells were incubated at a density of 250,000˜450,000 cells/mL in a volume of 170 μL in a 96-well plate in Dulbecco's Modified Eagle's medium (DMEM) containing 4.5 g/L glucose, 50 U/mL penicillin, […], […], 2 mM L-glutamine, 10% (v/v) heat-inactivated fetal bovine serum with addition of 20 μL test compound in a serial dilution in the presence of final DMSO at 1% and 10 μL of 20 μM R848 in above DMEM, perform incubation under 37° C. in a CO2 incubator for 20 hrs. Then 20 μL of the supernatant from each well was incubated with 180 μL Quanti-blue substrate solution at 37° C. for 2 hrs and the absorbance was read at 620-655 nm using a spectrophotometer. The signaling pathway that TLR7 activation leads to downstream NF-κB activation has been widely accepted, and therefore similar reporter assay was modified for evaluating TLR7 antagonist.

In the next series the target is human TLR8 (Homo sapiens (Human), UniProt Q9NR97). The series is described as follows: HEK293-Blue-hTLR-8 cells assay. Type of series: cell-based. The settings on record: HEK293-Blue-hTLR8 cells, R848 stimulation, 20 hrs, SEAP reporter; read-out: HEK/hTLR8 IC50.
Chain of human TLR8 (Q9NR97 27-1041): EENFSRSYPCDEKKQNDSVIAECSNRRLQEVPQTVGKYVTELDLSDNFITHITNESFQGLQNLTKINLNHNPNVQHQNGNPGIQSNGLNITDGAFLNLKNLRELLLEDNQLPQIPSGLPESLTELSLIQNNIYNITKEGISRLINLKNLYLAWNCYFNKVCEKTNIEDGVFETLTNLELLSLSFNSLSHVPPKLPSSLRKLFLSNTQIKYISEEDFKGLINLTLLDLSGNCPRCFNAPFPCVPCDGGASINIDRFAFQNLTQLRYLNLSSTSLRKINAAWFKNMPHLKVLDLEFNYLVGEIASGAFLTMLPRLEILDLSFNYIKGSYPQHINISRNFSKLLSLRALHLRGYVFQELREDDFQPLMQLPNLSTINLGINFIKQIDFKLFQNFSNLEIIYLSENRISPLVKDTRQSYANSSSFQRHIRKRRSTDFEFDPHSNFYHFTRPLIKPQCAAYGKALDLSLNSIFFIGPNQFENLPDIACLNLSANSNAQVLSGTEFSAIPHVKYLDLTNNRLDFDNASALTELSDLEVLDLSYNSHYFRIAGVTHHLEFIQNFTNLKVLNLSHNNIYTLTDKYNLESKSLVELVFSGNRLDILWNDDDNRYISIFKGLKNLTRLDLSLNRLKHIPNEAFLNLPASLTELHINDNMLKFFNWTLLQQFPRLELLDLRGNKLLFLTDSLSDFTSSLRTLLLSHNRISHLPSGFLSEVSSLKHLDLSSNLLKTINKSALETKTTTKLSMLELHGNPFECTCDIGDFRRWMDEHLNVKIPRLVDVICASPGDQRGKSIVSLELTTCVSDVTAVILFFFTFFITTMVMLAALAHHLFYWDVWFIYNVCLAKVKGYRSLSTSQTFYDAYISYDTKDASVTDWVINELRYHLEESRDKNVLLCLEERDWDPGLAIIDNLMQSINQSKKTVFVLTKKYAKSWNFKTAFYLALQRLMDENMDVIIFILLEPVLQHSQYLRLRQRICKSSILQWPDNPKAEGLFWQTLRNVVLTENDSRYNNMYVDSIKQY
Text: HEK293-Blue-hTLR-8 Cells Assay:
as §1, with “HEK293-Blue-hTLR-8” for “HEK293-Blue-hTLR-7”, “hkb-htlr8,” for “hkb-htlr7,”, “TLR8” for “TLR7”, “hTLR8” for “hTLR7”, “R848,” for “R848 (Resiquimod),”, “rep-Qb1,” for “rep-qb1,”
HEK293-Blue-hTLR8 cells were incubated at a density of 250,000-450,000 cells/mL in a volume of 170 μL in a 96-well plate in Dulbecco's Modified Eagle's medium (DMEM) containing 4.5 g/L glucose, 50 U/mL penicillin, […], […], 2 mM L-glutamine, 10% (v/v) heat-inactivated fetal bovine serum with addition of 20 μL test compound in a serial dilution in the presence of final DMSO at 1% and 10 μL of 60 μM R848 in above DMEM, perform incubation under 37° C. in a CO2 incubator for 20 hrs. Then 20 μL of the supernatant from each well was incubated with 180 μL Quanti-blue substrate solution at 37° C. for […] and the absorbance was read at 620˜655 nm using a spectrophotometer. The signaling pathway that TLR8 activation leads to downstream NF-κB activation has been widely accepted, and therefore similar reporter assay was modified for evaluating TLR8 antagonist.

The target in a further series is human TLR9 (Homo sapiens (Human), UniProt Q9NR96). Briefly: HEK293-Blue-hTLR-9 cells assay. The conditions noted are these: HEK293-Blue-hTLR9 cells, ODN2006 stimulation, 20 hrs, SEAP reporter; read-out: HEK/hTLR9 IC50. Type of series: cell-based.
Chain of human TLR9 (Q9NR96 26-1032): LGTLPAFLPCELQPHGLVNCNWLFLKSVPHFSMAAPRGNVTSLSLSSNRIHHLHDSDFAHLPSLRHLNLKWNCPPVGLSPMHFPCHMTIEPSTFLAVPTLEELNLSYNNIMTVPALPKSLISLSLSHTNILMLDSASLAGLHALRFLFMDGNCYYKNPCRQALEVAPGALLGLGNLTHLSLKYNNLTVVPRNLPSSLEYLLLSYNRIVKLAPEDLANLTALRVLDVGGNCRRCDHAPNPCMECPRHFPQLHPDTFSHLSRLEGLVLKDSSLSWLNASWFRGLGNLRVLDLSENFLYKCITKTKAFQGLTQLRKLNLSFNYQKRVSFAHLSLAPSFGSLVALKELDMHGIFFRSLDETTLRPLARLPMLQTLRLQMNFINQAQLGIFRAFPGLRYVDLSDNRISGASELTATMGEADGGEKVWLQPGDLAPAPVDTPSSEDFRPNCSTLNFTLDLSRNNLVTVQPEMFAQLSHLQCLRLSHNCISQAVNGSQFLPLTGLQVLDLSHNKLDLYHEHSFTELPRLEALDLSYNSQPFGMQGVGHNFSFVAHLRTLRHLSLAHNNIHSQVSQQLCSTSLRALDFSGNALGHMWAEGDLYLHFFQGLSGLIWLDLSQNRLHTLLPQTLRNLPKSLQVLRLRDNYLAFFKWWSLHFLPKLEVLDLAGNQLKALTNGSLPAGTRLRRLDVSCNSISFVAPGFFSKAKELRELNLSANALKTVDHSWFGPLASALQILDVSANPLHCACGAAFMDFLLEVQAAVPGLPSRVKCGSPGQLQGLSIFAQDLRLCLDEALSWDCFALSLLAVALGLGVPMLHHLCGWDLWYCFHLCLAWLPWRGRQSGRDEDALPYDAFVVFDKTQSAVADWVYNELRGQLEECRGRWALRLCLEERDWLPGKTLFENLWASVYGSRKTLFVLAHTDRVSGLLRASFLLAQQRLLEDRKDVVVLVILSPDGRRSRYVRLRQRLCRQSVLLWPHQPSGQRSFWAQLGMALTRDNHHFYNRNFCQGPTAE
Text: HEK293-Blue-hTLR-9 Cells Assay:
A stable HEK293-Blue-hTLR-9 cell line was purchased from InvivoGen (Cat. #: hkb-htlr9, San Diego, California, USA). These cells were originally designed for studying the stimulation of human TLR9 by monitoring the activation of NF-κB. A SEAP (secreted embryonic alkaline phosphatase) reporter gene was placed under the control of the IFN-β minimal promoter fused to five NF-κB and AP-1-binding sites. The SEAP was induced by activating NF-κB and AP-via stimulating HEK-Blue hTLR9 cells with TLR9 ligands. Therefore the reporter expression was declined by TLR9 antagonist under the stimulation of a ligand, such as ODN2006 (Cat. #: tlrl-2006-1, Invivogen, San Diego, California, USA), for incubation of 20 hrs. The cell culture supernatant SEAP reporter activity was determined using QUANTI-Blue™ kit (Cat. #: rep-qb1, Invivogen, San Diego, California, USA) at a wavelength of 640 nm, a detection medium that turns purple or blue in the presence of alkaline phosphatase.
as §2, with “HEK293-Blue-hTLR9 cells” for “HEK293-Blue-hTLR7 cells”, “μM ODN2006” for “μM R848”, “2 h” for “2 hrs”, “that TLR9” for “that TLR7”, “evaluating TLR9” for “evaluating TLR7”

Series [1] is described as follows: Human microsomal stability assay. It is filed as in vitro ADME. The conditions noted are these: human liver microsomes, 1 μM test compound, 37° C., pH 7.4. Here is the method: Human Microsomal Stability Assay
Human liver microsomes (Cat. NO.: 452117, Corning, USA) were preincubated with test compound for 10 minutes at 37° C. in 100 mM potassium phosphate buffer, pH 7.4. The reactions were initiated by adding NADPH regenerating system. The final incubation mixtures contained 1 μM test compound, 0.5 mg/mL liver microsomal protein, 1 mM MgCl2, 1 mM NADP, 1 unit/mL isocitric dehydrogenase and 6 mM isocitric acid in 100 mM potassium phosphate buffer, pH 7.4. After incubation times of 0, 3, 6, 9, 15 and 30 minutes at 37° C., 300 μL of cold ACN (including internal standard) was added to 100 μL incubation mixture to terminate the reaction. Following precipitation and centrifugation, 100 μL supernatant will be taken out and added 300 μL water. The amount of compound remaining in the samples was determined by LC-MS/MS. Controls of no NADPH regenerating system at zero and 30 minutes were also prepared and analyzed. The results were categorized as: low (<7.0 mL/min/kg), medium (7.0-16.2 mL/min/kg) and high (16.2-23.2 mL/min/kg).
A general note: Microsomes from liver hold many membrane-bound enzymes, among them those of drug oxidation.

Chain of human TLR7 (Q9NYK1 27-1049): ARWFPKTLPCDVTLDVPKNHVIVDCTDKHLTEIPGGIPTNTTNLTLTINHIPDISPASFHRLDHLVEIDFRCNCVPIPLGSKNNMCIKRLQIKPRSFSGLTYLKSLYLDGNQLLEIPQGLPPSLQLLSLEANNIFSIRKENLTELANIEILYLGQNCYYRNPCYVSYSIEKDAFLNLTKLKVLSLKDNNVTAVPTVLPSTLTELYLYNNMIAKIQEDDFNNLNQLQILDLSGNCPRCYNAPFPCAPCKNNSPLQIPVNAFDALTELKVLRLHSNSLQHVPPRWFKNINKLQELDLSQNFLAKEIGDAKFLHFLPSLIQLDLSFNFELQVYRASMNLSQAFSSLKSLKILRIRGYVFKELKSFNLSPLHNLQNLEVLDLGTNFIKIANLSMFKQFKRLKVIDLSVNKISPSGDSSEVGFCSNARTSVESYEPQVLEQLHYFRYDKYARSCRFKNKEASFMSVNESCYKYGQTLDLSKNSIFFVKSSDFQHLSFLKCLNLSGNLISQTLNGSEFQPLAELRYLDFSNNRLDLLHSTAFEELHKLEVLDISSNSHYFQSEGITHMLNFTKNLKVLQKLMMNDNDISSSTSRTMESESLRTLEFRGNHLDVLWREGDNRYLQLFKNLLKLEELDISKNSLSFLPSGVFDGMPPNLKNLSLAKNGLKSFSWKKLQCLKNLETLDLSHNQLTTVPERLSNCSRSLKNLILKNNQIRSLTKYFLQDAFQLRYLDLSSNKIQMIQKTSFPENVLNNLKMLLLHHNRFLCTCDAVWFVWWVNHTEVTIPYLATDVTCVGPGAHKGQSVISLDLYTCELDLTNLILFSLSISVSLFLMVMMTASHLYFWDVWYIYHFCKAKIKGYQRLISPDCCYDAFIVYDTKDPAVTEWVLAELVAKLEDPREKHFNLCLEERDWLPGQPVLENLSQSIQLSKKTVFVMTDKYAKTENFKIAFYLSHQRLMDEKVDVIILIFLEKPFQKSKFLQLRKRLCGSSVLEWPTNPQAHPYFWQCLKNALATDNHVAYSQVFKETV

As to `[2H]c1ccc2c(N3C[C@@H]4C[C@H](N5CCC(C)(N)CC5)CN4[C@H](C)C3)ccc(C#N)c2n1` [Example 18, 5-[(4R,7S,8aS)-7-(4-amino-4-methyl-1-piperidyl)-4-methyl-3,4,6,7,8,8a-hexahydro-1H-pyrrolo[1,2-a]pyrazin-2-yl]-2-deuterio-quinoline-8-carbonitrile], the results for the IC50 at human TLR7, on human TLR8 and on human TLR9 were 16.4 nM, 12.3 nM and 46.7 nM, respectively. Besides, the “CL (h)” value in series [1] stood at 9.8 mL/min/kg.

In the case of `[2H]c1ccc2c(N3C[C@@H]4C[C@H](N5CCC(C)(N)C5)CN4[C@H](C)C3)ccc(C#N)c2n1` (stereo partly drawn) [Example 19, 2-Deuterio-5-[(4R,7S,8aS)-7-(3-amino-3-methyl-pyrrolidin-1-yl)-4-methyl-3,4,6,7,8,8a-hexahydro-1H-pyrrolo[1,2-a]pyrazin-2-yl]quinoline-8-carbonitrile], the values for the IC50 on human TLR7, at human TLR8 and at human TLR9 were 19.9 nM, 8.9 nM and 210 nM, respectively. Besides, the “CL (h)” value in series [1] was 8.6 mL/min/kg.

Consider `[2H]c1ccc2c(N3C[C@@H]4C[C@H](n5cc6c(n5)CNCC6)CN4[C@H](C)C3)ccc(C#N)c2n1` [Example 23B, 2-deuterio-5-[(4R,7S,8aS)-4-methyl-7-(4,5,6,7-tetrahydropyrazolo[3,4-c]pyridin-2-yl)-3,4,6,7,8,8a-hexahydro-1H-pyrrolo[1,2-a]pyrazin-2-yl]quinoline-8-carbonitrile], for which the IC50 at human TLR7 came to 12 nM; on human TLR8, 3.4 nM; at human TLR9, 154 nM. The “CL (h)” value in series [1] came to 6.2 mL/min/kg.

Take `C[C@@H]1CN(c2ccc(C#N)c3ncccc23)C[C@@H]2C[C@@H](Nc3cc4c(cn3)CCN[C@@H]4C)CN21` [Example 9B, 5-[(4R,7R,8aS)-4-methyl-7-[[(5R)-5-methyl-5,6,7,8-tetrahydro-2,6-naphthyridin-3-yl]amino]-3,4,6,7,8,8a-hexahydro-1H-pyrrolo[1,2-a]pyrazin-2-yl]quinoline-8-carbonitrile]: the IC50 on human TLR7 stood at 13.3 nM; on human TLR8, 4.7 nM; at human TLR9 it was 42.1 nM. Besides, the “CL (h)” value in series [1] is 9.6 mL/min/kg.

`[2H]c1ccc2c(N3C[C@@H]4C[C@H](N5CC6CCC(C5)N6)CN4[C@H](C)C3)ccc(C#N)c2n1` [Example 16, 2-Deuterio-5-[(4R,7S,8aS)-7-(3,8-diazabicyclo[3.2.1]octan-3-yl)-4-methyl-3,4,6,7,8,8a-hexahydro-1H-pyrrolo[1,2-a]pyrazin-2-yl]quinoline-8-carbonitrile]: the IC50 was 8.1 nM on human TLR7, 4.7 nM at human TLR8 and 40.9 nM at human TLR9. In addition, the “CL (h)” value in series [1] is listed as 7.2 mL/min/kg.

With `[2H]c1ccc2c(N3C[C@@H]4C[C@H](N5CCc6ncc(N7CCNCC7)nc6C5)CN4[C@H](C)C3)ccc(C#N)c2n1` [Example 24], the figures for the IC50 at human TLR7, at human TLR8 and at human TLR9 were 4.3 nM, 5.9 nM and 95.2 nM, respectively. The “CL (h)” value in series [1] is reported as 8.9 mL/min/kg.

As for `C[C@@H]1NCc2nc(N[C@@H]3C[C@H]4CN(c5ccc(C#N)c6ncccc56)C[C@@H](C)N4C3)ccc21` [Example 7B, 5-[(4R,7R,8aS)-4-methyl-7-[[(5S)-5-methyl-6,7-dihydro-5H-pyrrolo[3,4-b]pyridin-2-yl]amino]-3,4,6,7,8,8a-hexahydro-1H-pyrrolo[1,2-a]pyrazin-2-yl]quinoline-8-carbonitrile], the IC50 was 29.8 nM at human TLR7, 11.3 nM on human TLR8 and 56.5 nM at human TLR9.

Regarding `C[C@@H]1CN(c2ccc(C#N)c3ncccc23)C[C@@H]2C[C@@H](Nc3ccc4c(n3)CN[C@@H]4C)CN21` [Example 7A, 5-[(4R,7R,8aS)-4-methyl-7-[[(5R)-5-methyl-6,7-dihydro-5H-pyrrolo[3,4-b]pyridin-2-yl]amino]-3,4,6,7,8,8a-hexahydro-1H-pyrrolo[1,2-a]pyrazin-2-yl]quinoline-8-carbonitrile], the IC50 at human TLR7 came to 17.7 nM; at human TLR8, 9 nM; on human TLR9, 53.5 nM.

Take `C[C@@H]1Cc2nc(N[C@@H]3C[C@H]4CN(c5ccc(C#N)c6ncccc56)C[C@@H](C)N4C3)ccc2CN1` [Example 8B, 5-[(4R,7R,8aS)-4-methyl-7-[[(7R)-7-methyl-5,6,7,8-tetrahydro-1,6-naphthyridin-2-yl]amino]-3,4,6,7,8,8a-hexahydro-1H-pyrrolo[1,2-a]pyrazin-2-yl]quinoline-8-carbonitrile]: the IC50 on human TLR7 stood at 14.7 nM; on human TLR8, 7.5 nM; at human TLR9, 89.4 nM.
